The results in this text go back to patent US11590116B2 (THERAVANCE BIOPHARMA R&D IP, LLC, priority 2019, dated 2023).

The target in assay [1] is T1, recombinant human ALK5 (TGF-βR1) protein (Homo sapiens, UniProt P36897).
T1 construct: purchased Life Technologies PR9075A
T1 sequence (P36897 34-503): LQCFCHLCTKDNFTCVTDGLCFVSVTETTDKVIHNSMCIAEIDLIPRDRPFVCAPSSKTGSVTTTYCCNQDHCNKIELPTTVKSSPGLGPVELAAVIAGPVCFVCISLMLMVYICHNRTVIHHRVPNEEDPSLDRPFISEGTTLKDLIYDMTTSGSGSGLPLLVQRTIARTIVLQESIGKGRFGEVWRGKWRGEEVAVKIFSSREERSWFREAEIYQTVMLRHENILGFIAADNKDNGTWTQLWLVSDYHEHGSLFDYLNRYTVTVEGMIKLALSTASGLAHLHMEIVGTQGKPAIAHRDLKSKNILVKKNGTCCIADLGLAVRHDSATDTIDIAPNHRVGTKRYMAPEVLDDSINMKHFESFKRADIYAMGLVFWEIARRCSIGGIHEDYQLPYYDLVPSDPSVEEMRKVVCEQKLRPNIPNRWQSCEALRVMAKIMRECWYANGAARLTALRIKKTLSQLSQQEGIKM
Kind of assay: Biochemical ALK5 (TGF-βR1) assay to measure pKi (LANCE Ultra ULight kinase assay). The settings on record: apparent pKi from pIC50 by Cheng-Prusoff, read-out: ALK5 pKi (converted). The procedure, abridged: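 After a 60 min room-temperature preincubation of ALK5 with compound, phosphorylation proceeds 60 min at 37 °C on ATP addition (125 μM as 5× stock). Detection: Eu-labelled phospho-Thr1342 Topo IIα antibody in EDTA buffer, pH 7.0; emission 665 nm.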
For orientation: Time-resolved FRET reads energy transfer from a long-lived donor to a nearby acceptor.

Assay [2] deals with TGF-β-stimulated SMAD3 phosphorylation in BEAS-2B cells. Kind of assay: Cellular ALK5 potency assay, inhibition of TGF-β stimulated pSMAD3 formation in BEAS-2B cells. The format is cell-based. The settings on record: Homo sapiens; inhibition of TGF-β stimulated pSMAD3 formation, BEAS-2B cells; read-out: BEAS2B pIC50 (converted). The essentials: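 Cells seeded overnight; rinse with supplemented HBSS; compound 1 h at 37 °C; TGF-β 10 ng/mL final, 30 min; lyse; AlphaLISA acceptor and detector beads 2 h apart, read next day. Potency expressed as pIC50.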

SMILES strings stand for the structures. Where only a bound is given, the exact number is not on record here.

On to `Cc1cccc(-c2[nH]cnc2-c2ccc3ncc(-c4cnc(C(=O)O)nc4)cc3c2)n1` [Compound 1142, 5-[6-[5-(6-methyl-2-pyridyl)-1H-imidazol-4-yl]-3-quinolyl]pyrimidine-2-carboxylic acid], for which the Ki in assay [1] was 0.398 to 3.16 nM. For the same molecule, in assay [2], the IC50 was 1580 to 10000 nM.

Consider `CCOC(=O)Cc1ccnc2ccc(-c3c[nH]nc3-c3cccc(C)n3)nc12` [Compound 855, ethyl 2-[6-[3-(6-methyl-2-pyridyl)-1H-pyrazol-4-yl]-1,5-naphthyridin-4-yl]acetate], for which the Ki in assay [1] is 0.0398 to 0.316 nM. The IC50 in assay [2] is 25.1 to 158 nM.

With `Cc1cccc(-c2[nH]cnc2-c2ccc3ncc(C(=O)OCCN4CCN5CCCC5C4)cc3c2)n1` (stereo not shown) [Compound 1067, 2-(3,4,6,7,8,8a-hexahydro-1H-pyrrolo[1,2-a]pyrazin-2-yl)ethyl 6-[5-(6-methyl-2-pyridyl)-1H-imidazol-4-yl]quinoline-3-carboxylate], the Ki in assay [1] is 0.0398 to 0.316 nM. Also, the IC50 in assay [2] is 25.1 to 158 nM.

With `Cc1cccc(-c2[nH]cnc2-c2ccc3ncc(NCCNC4CNC4)cc3c2)n1` [Compound 189, N′-(azetidin-3-yl)-N-[6-[5-(6-methyl-2-pyridyl)-1H-imidazol-4-yl]-3-quinolyl]ethane-1,2-diamine], the Ki in assay [1] was 0.0398 to 0.316 nM. In addition, the IC50 in assay [2] was 200 to 1260 nM.

In the case of `Cc1cccc(-c2[nH]cnc2-c2ccc3ncc(N4CCC(NC(=O)[C@@H]5CCCN5)CC4)cc3c2)n1` [Compound 388, (2S)-N-[1-[6-[5-(6-methyl-2-pyridyl)-1H-imidazol-4-yl]-3-quinolyl]-4-piperidyl]pyrrolidine-2-carboxamide], the Ki in assay [1] was 0.0398 to 0.316 nM. The IC50 in assay [2] is 200 to 1260 nM.

`Cc1cccc(-c2n[nH]cc2-c2ccc3ncc(N4CCC(N(C)CC(C)C)CC4)cc3n2)n1` [Compound 403, N-isobutyl-N-methyl-1-[6-[3-(6-methyl-2-pyridyl)-1H-pyrazol-4-yl]-1,5-naphthyridin-3-yl]piperidin-4-amine]: in assay [1], the Ki was 0.0398 to 0.316 nM. Also, in assay [2], the IC50 was 25.1 to 158 nM.

`Cc1nc(-c2n[nH]cc2-c2ccc3ncc(-c4cnn(C[C@H]5CCC[C@H](N)C5)c4)cc3n2)ccc1F` (racemic) [Compound 395, rac-(1S,3S)-3-[[4-[6-[3-(5-fluoro-6-methyl-2-pyridyl)-1H-pyrazol-4-yl]-1,5-naphthyridin-3-yl]pyrazol-1-yl]methyl]cyclohexanamine]: the Ki in assay [1] is less than 0.0316 nM. Further, in assay [2], the IC50 was 25.1 to 158 nM.

Turning to `Cc1cccc(-c2n[nH]cc2-c2ccc3ncc(N4CC[C@H](N(C)C)C4)cc3c2)n1` (racemic) [Compound 70, rac-(3S)-N,N-dimethyl-1-[6-[3-(6-methyl-2-pyridyl)-1H-pyrazol-4-yl]-3-quinolyl]pyrrolidin-3-amine], in assay [1], the Ki is less than 0.0316 nM. For the same molecule, the IC50 in assay [2] was 25.1 to 158 nM.

For the molecule `Cc1cccc(-c2n[nH]cc2-c2ccc3ncc(N4CCC[C@@H]4CO)cc3n2)n1` [Compound 270, [(2R)-1-[6-[3-(6-methyl-2-pyridyl)-1H-pyrazol-4-yl]-1,5-naphthyridin-3-yl]pyrrolidin-2-yl]methanol], in assay [1], the Ki was 0.0398 to 0.316 nM. Also, the IC50 in assay [2] is 25.1 to 158 nM.

Turning to `Cc1cccc(-c2n[nH]cc2-c2ccc3ncc(N4CCCN(Cc5ccccc5)CC4)cc3n2)n1` [Compound 65, 7-(4-benzyl-1,4-diazepan-1-yl)-2-[3-(6-methyl-2-pyridyl)-1H-pyrazol-4-yl]-1,5-naphthyridine], in assay [1], the Ki was 0.0398 to 0.316 nM. Moreover, the IC50 in assay [2] was 200 to 1260 nM.

`Cc1cccc(-c2n[nH]cc2-c2ccc3ncc(N(C)CC(=O)N4CCOCC4)cc3n2)n1` [Compound 181, 2-[methyl-[6-[3-(6-methyl-2-pyridyl)-1H-pyrazol-4-yl]-1,5-naphthyridin-3-yl]amino]-1-morpholino-ethanone]: in assay [1], the Ki is 0.398 to 3.16 nM. Besides, the IC50 in assay [2] is 25.1 to 158 nM.

Take `Cc1cccc(-c2[nH]cnc2-c2ccc3ncc(-c4ccc(C(=O)O[C@H]5CCNC5)nc4)cc3c2)n1` [Compound 1122, [(3S)-pyrrolidin-3-yl] 5-[6-[5-(6-methyl-2-pyridyl)-1H-imidazol-4-yl]-3-quinolyl]pyridine-2-carboxylate]: the Ki in assay [1] is 0.0398 to 0.316 nM. In assay [2], the IC50 was 200 to 1260 nM.

As for `Cc1cccc(-c2[nH]cnc2-c2ccc3ncc(-c4ccc(C(=O)OC5CNC5)cn4)cc3c2)n1` [Compound 1027, azetidin-3-yl 6-[6-[5-(6-methyl-2-pyridyl)-1H-imidazol-4-yl]-3-quinolyl]pyridine-3-carboxylate], the Ki in assay [1] is 0.0398 to 0.316 nM. Besides, the IC50 in assay [2] was 25.1 to 158 nM.

For `Cc1cccc(-c2[nH]cnc2-c2ccc3ncc(C(=O)O[C@H]4CCCNC4)cc3c2)n1` [Compound 878, (S)-piperidin-3-yl 6-(5-(6-methylpyridin-2-yl)-1H-imidazol-4-yl)quinoline-3-carboxylate], the Ki in assay [1] was 0.0398 to 0.316 nM. Also, in assay [2], the IC50 is 25.1 to 158 nM.

Regarding `Cc1cccc(-c2n[nH]cc2-c2ccc3ncc(NC(=O)C(F)(F)F)cc3n2)n1` [Compound 610, 2,2,2-trifluoro-N-[6-[3-(6-methyl-2-pyridyl)-1H-pyrazol-4-yl]-1,5-naphthyridin-3-yl]acetamide], the Ki in assay [1] was 0.0398 to 0.316 nM. For the same molecule, the IC50 in assay [2] was 25.1 to 158 nM.

Turning to `Cc1cccc(-c2[nH]ncc2-c2ccc3ncc(C(=O)O[C@@H]4CCN(C)C4)cc3n2)n1` [Compound 421, [(3R)-1-methylpyrrolidin-3-yl] 6-[5-(6-methyl-2-pyridyl)-1H-pyrazol-4-yl]-1,5-naphthyridine-3-carboxylate], the Ki in assay [1] was 0.398 to 3.16 nM. Also, the IC50 in assay [2] is 25.1 to 158 nM.

Take `Cc1cccc(-c2nnn(C)c2-c2ccc3ncc(NCCN4CCN(C(C)C)CC4)cc3c2)n1` [Compound 244, N-[2-(4-isopropylpiperazin-1-yl)ethyl]-6-[3-methyl-5-(6-methyl-2-pyridyl)triazol-4-yl]quinolin-3-amine]: the Ki in assay [1] was 0.0398 to 0.316 nM. In addition, the IC50 in assay [2] was 25.1 to 158 nM.

Take `Cc1cccc(-c2[nH]cnc2-c2ccc3ncc(-c4cccc(C(=O)O[C@H]5CCNC5)n4)cc3c2)n1` [Compound 1089, [(3S)-pyrrolidin-3-yl] 6-[6-[5-(6-methyl-2-pyridyl)-1H-imidazol-4-yl]-3-quinolyl]pyridine-2-carboxylate]: the Ki in assay [1] is 0.0398 to 0.316 nM. For the same molecule, in assay [2], the IC50 is 25.1 to 158 nM.

As to `Cc1cccc(-c2n[nH]cc2-c2ccc3nccc(C(=O)NCCCC[C@H](NC(=O)[C@@H](C)N)C(=O)O)c3n2)n1` (racemic) [Compound 804, rac-(2S)-6-[[6-[3-(6-methyl-2-pyridyl)-1H-pyrazol-4-yl]-1,5-naphthyridine-4-carbonyl]amino]-2-[[rac-(2R)-2-aminopropanoyl]amino]hexanoic acid], in assay [1], the Ki was 0.398 to 3.16 nM. Besides, in assay [2], the IC50 is 1580 to 10000 nM.

Turning to `Cc1cccc(-c2[nH]ncc2-c2ccc3ncc(C(=O)OCC4CNC4)cc3c2)n1` [Compound 790, azetidin-3-ylmethyl 6-(5-(6-methylpyridin-2-yl)-1H-pyrazol-4-yl)quinoline-3-carboxylate], the Ki in assay [1] was 0.0398 to 0.316 nM. In assay [2], the IC50 is 25.1 to 158 nM.

`Cc1cccc(-c2n[nH]cc2-c2ccc3ncc(N4CCN(C5(C(N)=O)CCCC5)CC4)cc3n2)n1` [Compound 528, 1-[4-[6-[3-(6-methyl-2-pyridyl)-1H-pyrazol-4-yl]-1,5-naphthyridin-3-yl]piperazin-1-yl]cyclopentanecarboxamide]: in assay [1], the Ki is 0.398 to 3.16 nM. In assay [2], the IC50 is 200 to 1260 nM.

Turning to `Cc1cccc(-c2n[nH]cc2-c2ccc3ncc(N4C[C@@H](C)NC[C@H]4C)cc3n2)n1` (racemic) [Compound 462, 2-[3-(6-methyl-2-pyridyl)-1H-pyrazol-4-yl]-7-[rac-(2R,5R)-2,5-dimethylpiperazin-1-yl]-1,5-naphthyridine], the Ki in assay [1] was 0.398 to 3.16 nM. Moreover, the IC50 in assay [2] is 25.1 to 158 nM.

On to `Cc1cccc(-c2[nH]cnc2-c2ccc3ncc(NC(=O)C4CCNCC4)cc3c2)n1` [Compound 649, N-[6-[5-(6-methyl-2-pyridyl)-1H-imidazol-4-yl]-3-quinolyl]piperidine-4-carboxamide], for which, in assay [1], the Ki is 0.0398 to 0.316 nM. Moreover, the IC50 in assay [2] was 200 to 1260 nM.

For the molecule `Cc1nc(-c2n[nH]cc2-c2ccc3ncc(N4CCCNCC4)cc3c2)ccc1F` [Compound 209, 3-(1,4-diazepan-1-yl)-6-[3-(5-fluoro-6-methyl-2-pyridyl)-1H-pyrazol-4-yl]quinoline], the Ki in assay [1] is 0.0398 to 0.316 nM. Further, the IC50 in assay [2] was 25.1 to 158 nM.

Regarding `Cc1cccc(-c2n[nH]cc2-c2ccc3ncc(N4CCNCC4)cc3n2)n1` [Compound 73, 2-[3-(6-methyl-2-pyridyl)-1H-pyrazol-4-yl]-7-piperazin-1-yl-1,5-naphthyridine], the Ki in assay [1] is less than 0.0316 nM. Also, in assay [2], the IC50 is less than 20 nM.

For `Cc1cccc(-c2[nH]cnc2-c2ccc3ncc(C(=O)OCCN4CCNCC4)cc3c2)n1` [Compound 756, 2-(piperazin-1-yl)ethyl 6-(5-(6-methylpyridin-2-yl)-1H-imidazol-4-yl)quinoline-3-carboxylate], in assay [1], the Ki was 0.0398 to 0.316 nM. The IC50 in assay [2] was 25.1 to 158 nM.
